According to patent EP3909969A1, “PEPTIDE FOR HYDROGEL FORMATION” (Freie Universität Berlin, priority 2020, dated 2021):

System: NIH/3T3 embryonic mouse fibroblast cells
Assay: Cytotoxicity assay of hydrogel cultured cells by Cell Counting Kit-8 (CCK-8)
Type: cell-based
Conditions: hydrogel at 0.3 wt%, after 24 h, NIH/3T3 cells
Description: NIH/3T3 embryonic mouse fibroblast cells were cultured in DMEM culture medium (Lonza, 4,5 g/L glucose, 10 % FCS, 1 % penicillin/streptomycin) in a humidified incubator (5 % CO2, 37°C). The cells were grown in 175 cm^2 cell culture flaks and medium was changed thrice a week. Upon confluency of 70 % - 80 % the culture was subcultured according to the detected cell number.
To determine whether different peptide hydrogel compositions would be tolerated by the cells CCK-8 was used to conduct viability of cells during a 3 days cell culture. A suspension of NIH/3T3 cells in DMEM (4.5 g/L, 10 % FCS, 1 % penicillin/streptomycin) was seeded in a transparent 96-well plate with a density of 10.000 cells in an overall volume of 100 µL per well containing the respecting hydrogels. 10 µL of 1 % (w/v) SDS was added to the respective wells of positive control and the plate was further incubated for 24 h and 72 h at 37°C and 5 % CO2 respectively. After each time points 10 µL of CCK-8 solution were added to each well and allowed to incubate for 2 h in a humidified incubator at 37°C. During this time dehydrogenases in viable cells reduces WST-8 tetrazolium to formazan, which will be detected by measuring the absorbance at 450 nm. Absorbance was measured by using a Tecan Infinite 200 Pro microplate reader. Three experiments were performed in triplicates per hydrogel candidate (n=3). […]

With CC(C)C[C@H](NC(=O)[C@H](CCC(=O)O)NC(=O)[C@H](CCCCN)NC(=O)[C@H](CCCCN)NC(=O)[C@H](CC(C)C)NC(=O)[C@H](C)NC(=O)[C@H](C)NC(=O)[C@H](CC(C)C)NC(=O)[C@H](CCC(=O)O)NC(=O)[C@H](CCCCN)NC(=O)[C@H](CCCCN)NC(=O)[C@H](CC(C)C)NC(=O)[C@H](C)NC(=O)[C@H](C)NC(=O)[C@H](CC(C)C)NC(=O)[C@H](CCC(=O)O)NC(=O)[C@H](CCCCN)NC(=O)[C@H](CCCCN)NC(=O)[C@H](CC(C)C)NC(=O)[C@H](C)NC(=O)[C@H](C)NC(=O)[C@H](CC(C)C)NC(=O)[C@H](CCC(=O)O)NC(=O)[C@H](CCCCN)NC(=O)[C@H](CCCCN)NC(=O)[C@H](CC(C)C)NC(=O)c1ccccc1N)C(=O)O [hFF03] the “viability compared to the control” value was “higher than 160%”.
